Data set [1] is described as follows: Apparent permeability from basolateral to apical side in human Caco2 cells. The class given is ADME, cell-based. Conditions: Caco-2. In general terms: Caco-2 monolayers are a common model of the intestinal barrier.
Data set [2] can be described thus: Aqueous equilibrium solubility of compound in pH 6.8 solution by high throughput assay. The conditions noted are these: aqueous pH 6.8 solution. The class given is physicochemical.
The nature of a further data set: in vitro. Conditions: human, Caco-2.
Data set [3] is described as follows: Protein binding in human plasma. The class given is ADME, cell-free. Conditions: read-out: PPB (converted).
Data set [4] is described as follows: Clearance in Sprague-Dawley rat at 1 mg/kg, iv administered as bolus dose by LC-MS/MS analysis. The class given is ADME, organism-based. Conditions: in vivo.
The nature of data set [5]: AUC (0 to 8 hrs) in Sprague-Dawley rat plasma at 10 mg/kg, po by LC-MS/MS analysis. The data set is classed as ADME, organism-based. Details: dose 10 mg/kg, time < 8 hr, route oral.
Data set [6] in a line: Terminal half life in Sprague-Dawley rat at 1 mg/kg, iv administered as bolus dose by LC-MS/MS analysis. The data set is classed as ADME, organism-based. Conditions: in vivo, read-out: beta t1/2 (converted).
In the next data set the test system is Lymphocyte. Kind of data set: Genotoxicity in human primary lymphocytes by micronucleus test. The data set is classed as toxicity, cell-based.
Data set [7] in a line: Cmax in Sprague-Dawley rat plasma at 10 mg/kg, po by LC-MS/MS analysis. The class given is ADME, organism-based. Also noted: dose 10 mg/kg, route oral.
The next data set relates to Salmonella typhimurium. Kind of data set: Genotoxicity in Salmonella typhimurium by Ames test. The data set is classed as toxicity. Conditions: salmonella enterica subsp. enterica serovar typhimurium. For orientation: The Ames test uses bacterial strains that need an amino acid and regain growth without it when mutated back.
Data set [8] can be described thus: Oral bioavailability in Sprague-Dawley rat at 10 mg/kg by LC-MS/MS analysis. The class given is ADME, organism-based. Conditions: in vivo.
The target in a further data set is Complement factor D (Homo sapiens, UniProt P00746). Kind of data set: Inhibition of recombinant human complement factor D catalytic domain (G24 to A253 residues) expressed in expressed in Escherichia coli(Rosetta) using Z-Lys-thiobenzylester as substrate preincubated for 1 hr followed by substrate addition by 2,4-dinitrobenzenesulfonyl-2,7-desmethyl-fluorecein probe based spectrofluorimetric assay.

The subject of data set [9] is Cynomolgus monkey. Kind of data set: In vivo inhibition of complement factor D in cynomolgus monkey assessed as serum concentration required to show complete reduction in zymosan-induced AP activation by measuring soluble MAC complex deposition at 10 to 50 mg/kg, po administered as single dose via gavage measured at 4 to 24 hrs post dose by LC-MS analysis. The class given is functional, Macaca fascicularis.

Data set [10] concerns Cynomolgus monkey. Kind of data set: In vivo inhibition of complement factor D in cynomolgus monkey assessed as decrease in zymosan-induced AP activation by measuring soluble MAC complex deposition in serum administered as single dose via oral gavage measured at 4 to 24 hrs post dose. The class given is functional, organism-based. Conditions: Macaca fascicularis.
Data set [11] deals with Cynomolgus monkey. Kind of data set: In vivo inhibition of complement factor D in cynomolgus monkey assessed as decrease in zymosan-induced AP activation by measuring soluble MAC complex deposition in serum at 10 to 50 mg/kg, po administered as single dose via gavage measured 4 hrs post dose. The class given is functional, organism-based. The conditions noted are these: Macaca fascicularis.

The nature of data set [12]: Drug uptake in Brown Norway rat posterior eye cup at 10 mg/kg, po administered as single dose via gavage after 6 hrs by LC-MS/MS analysis. The data set is classed as ADME, organism-based. Conditions: read-out: Drug uptake.
For data set [13], the system named is Mus musculus. Kind of data set: In vivo inhibition of Ba generation in plasma of B6-Cfdtm1.1(CFD)Npa mouse at 30 mg/kg, po administered via gavage treated up to 24 hrs prior to test and LPS challenge up to 7.5 hrs prior to test measured up to 8 hrs. The data set is classed as functional, organism-based.
The test system of data set [14] is Mus musculus. Kind of data set: In vivo inhibition of complement activation in B6-Cfdtm1.1(CFD)Npa mouse assessed as decrease iC3b generation in eyes at 30 mg/kg, po administered via gavage treated up to 24 hrs prior to test and LPS challenge up to 7.5 hrs prior to test measured up to 12 hrs. The class given is functional, organism-based.
The target in the next data set is Cytochrome P450 3A4 (Homo sapiens, UniProt P08684).
For data set [15], the target named is Voltage-gated inwardly rectifying potassium channel KCNH2 (Homo sapiens, UniProt Q12809).
The target of a further data set is Cytochrome P450 2C9 (Homo sapiens, UniProt P11712).
Data set [16] can be described thus: Drug uptake in Brown Norway rat plasma at 10 mg/kg, po administered as single dose via gavage after 6 hrs by HPLC-MS/MS analysis. The data set is classed as ADME, organism-based.
A further data set addresses Cytochrome P450 2D6 (Homo sapiens, UniProt P10635).
Data set [17] in a line: Drug uptake in Brown Norway rat neural retina at 10 mg/kg, po administered as single dose via gavage after 6 hrs by LC-MS/MS analysis. The class given is ADME, organism-based. Conditions: read-out: Drug uptake.
The test system of data set [18] is Mus musculus. Kind of data set: In vivo inhibition of complement activation in B6-Cfdtm1.1(CFD)Npa mouse assessed as decrease C3d generation in eyes at 30 mg/kg, po administered via gavage treated up to 24 hrs prior to test and LPS challenge up to 7.5 hrs prior to test measured up to 12 hrs. The class given is functional, organism-based.

The source of these data is ChEMBL document CHEMBL4011635 (J Med Chem, 2017).

Converted amounts (≈) assume the structure as drawn. The source made the active and inactive calls. The rule behind the calls is not given here.

For `NC(=O)n1cc(NC(=O)N2[C@@H]3C[C@@H]3C[C@H]2C(=O)Nc2cccc(OC(F)(F)F)c2)c2ccccc21`, the basolateral-to-apical permeability (Papp B→A) in [1] was determined as 5.7 ×10⁻⁶ cm/s. The same compound registered a solubility (thermodynamic) in data set [2] of 77 µM (≈ 37.5 µg/mL). In the data set “in vitro”, this compound registered a Papp A→B of 4.5 ×10⁻⁶ cm/s.

`NC(=O)n1cc(NC(=O)N2[C@@H]3C[C@@H]3C[C@H]2C(=O)Nc2cccc(C(F)(F)F)n2)c2ccccc21`: the Papp B→A in [1] was 14.2 ×10⁻⁶ cm/s. Also, the thermodynamic solubility in [2] worked out at 110 µM (≈ 52 µg/mL). Further, in “in vitro”, the Papp A→B amounted to 11.3 ×10⁻⁶ cm/s. In addition, in data set [3], the fraction unbound was 0.048.

Take `NC(=O)n1cc(NC(=O)N2C[C@@H](O)C[C@H]2C(=O)Nc2cccc(OC(F)(F)F)c2)c2ccccc21`: the Papp B→A in data set [1] was found to be 17 ×10⁻⁶ cm/s. The thermodynamic solubility in [2] is 23 µM (≈ 11.3 µg/mL). Besides, in the data set “in vitro”, the apical-to-basolateral permeability (Papp A→B) worked out at 0.77 ×10⁻⁶ cm/s.

Consider `NC(=O)n1cc(NC(=O)N2C[C@@H](N)C[C@H]2C(=O)Nc2cccc(OC(F)(F)F)c2)c2ccccc21`, for which the Papp B→A in data set [1] turned out to be 5.1 ×10⁻⁶ cm/s. For the same compound, in data set [2], the thermodynamic solubility was determined as 280 µM (≈ 137 µg/mL). This compound also came in with an apparent permeability from apical to basolateral (Papp A→B) in the data set “in vitro” of 2.1 ×10⁻⁶ cm/s.

With `NC(=O)n1cc(NC(=O)N2[C@@H]3C[C@@H]3C[C@H]2C(=O)Nc2cccc(OC(F)(F)F)c2F)c2ccccc21`, the apparent permeability from basolateral to apical (Papp B→A) in data set [1] worked out at 6.5 ×10⁻⁶ cm/s. Also, in [2], the thermodynamic solubility turned out to be 10 µM (≈ 5.05 µg/mL). The compound also returned a Papp A→B in the data set “in vitro” of 5.1 ×10⁻⁶ cm/s.

In data set [4], `NC(=O)n1cc(NC(=O)N2CCC[C@H]2C(=O)Nc2cccc(OC(F)(F)F)c2)c2ccccc21` showed a clearance of 21 mL/min/kg. The apparent permeability from basolateral to apical (Papp B→A) in data set [1] was determined as 6.3 ×10⁻⁶ cm/s. The exposure AUC(0-t) at 8 h in data set [5] is 4.99 µM·h. Moreover, in data set [2], the thermodynamic solubility amounted to 17 µM (≈ 8.08 µg/mL). In data set [6], the half-life is 1.4 h. Moreover, the Activity entry in the data set on Lymphocyte and in the data set with Salmonella typhimurium was “Non-Toxic” throughout. In the data set “in vitro”, this compound returned a Papp A→B of 6.1 ×10⁻⁶ cm/s. The compound further had a Cmax in data set [7] of 1170 nM. The compound also displayed a bioavailability in data set [8] of 25%.

In the case of `Cn1cc(NC(=O)N2CCC[C@H]2C(=O)Nc2cccc(OC(F)(F)F)c2)c2ccccc21`, the IC50 at Complement factor D was found to be 20 µM.

As to `NC(=O)n1cc(NC(=O)N2[C@@H]3C[C@@H]3C[C@H]2C(=O)Nc2cccc(C(F)(F)F)c2F)c2ccccc21`, the apparent permeability from basolateral to apical (Papp B→A) in [1] amounted to 7 ×10⁻⁶ cm/s. In [2], this compound gave a thermodynamic solubility of 46 µM (≈ 22.5 µg/mL). In “in vitro”, the Papp A→B was 10 ×10⁻⁶ cm/s. Also, the fraction unbound in [3] was less than 0.01.

With `NC(=O)c1nn(CC(=O)N2[C@@H]3C[C@@H]3C[C@H]2C(=O)Nc2cccc(Br)n2)c2ccccc12`, the basolateral-to-apical permeability (Papp B→A) in data set [1] is 18.1 ×10⁻⁶ cm/s. In the data set with Cynomolgus monkey [9], the INH was greater than 0.5 µM. Moreover, the EC50 in the data set on Cynomolgus monkey [10] is 0.038 µM. In [2], this compound returned a solubility (thermodynamic) of 170 µM (≈ 82.2 µg/mL). The inhibition entry in the data set with Cynomolgus monkey [11], in the data set on Mus musculus [13], in the data set with Mus musculus [14] and with Mus musculus [18] was “Active” in each case. The concentration at 6 h in [12] was 430 nM; in data set [16], 360 nM; in [17], 90 nM. The Activity entry in the data set with Lymphocyte and in the data set with Salmonella typhimurium was “Non-Toxic” in each case. The compound further came in with a Papp A→B in “in vitro” of 15.3 ×10⁻⁶ cm/s. In addition, the IC50 on Cytochrome P450 3A4 is 17 µM; in data set [15] it was greater than 30 µM; at Cytochrome P450 2C9, greater than 20 µM; at Cytochrome P450 2D6, greater than 20 µM. Moreover, the fraction unbound in data set [3] was 0.08.

As for `NC(=O)c1cn(CC(=O)N2[C@@H]3C[C@@H]3C[C@H]2C(=O)Nc2cccc(Br)n2)c2ccccc12`, the fraction unbound in data set [3] was 0.131.

Turning to `NC(=O)n1cc(NC(=O)N2[C@@H]3C[C@@H]3C[C@H]2C(=O)Nc2cccc(Br)n2)c2ccccc21`, the basolateral-to-apical permeability (Papp B→A) in data set [1] was determined as 10.3 ×10⁻⁶ cm/s. The compound further yielded a thermodynamic solubility in [2] of 57 µM (≈ 27.5 µg/mL). Further, the Papp A→B in “in vitro” was 9.6 ×10⁻⁶ cm/s. In addition, the fraction unbound in data set [3] was 0.036.

For the compound `NC(=O)n1cc(NC(=O)N2C[C@H](F)C[C@H]2C(=O)Nc2cccc(OC(F)(F)F)c2)c2ccccc21`, the apparent permeability from basolateral to apical (Papp B→A) in [1] came to 8 ×10⁻⁶ cm/s. The thermodynamic solubility in data set [2] was 7 µM (≈ 3.45 µg/mL). For the same compound, the Papp A→B in the data set “in vitro” came to 0.75 ×10⁻⁶ cm/s.

One may read the Papp B→A as the apparent permeability from the basolateral to the apical side of a cell layer. What is called thermodynamic solubility is solubility found after equilibrating the solid with the medium. Usually Papp A→B stands for the apparent permeability from the apical to the basolateral side of a cell layer. As a reminder, the clearance is a measure of how efficiently the substance is removed, as volume per time. Usually AUC(0-t) stands for the area under the concentration-time curve up to a stated or last time point. What is called Cmax is the peak of the concentration-time curve. As usually defined, the bioavailability is dose-corrected exposure relative to a reference, in per cent. In general, IC50 refers to the concentration at which inhibition is half-maximal. Usually EC50 stands for the concentration at which the effect is half-maximal.
